Assay results published in US7989422B2, “Antibacterial agents” (Alchemia Limited, priority 2005, dated 2011).

Legend:
Assay type in all cases: cell-based
[1] = system: Enterococcus faecalis ATCC 29212; assay: MIC against E. faecalis, microbroth dilution; details: MIC class
Procedure: (§1) Testing was conducted to determine the in vitro antimicrobial activity of a series of compounds synthesised by Alchemia Pty Ltd. The antimicrobial activity of each compound was determined at a single concentration (128 μg/mL) in Mueller Hinton (MH) broth against the ATCC type strain of Staphylococcus aureus. […] Compounds showing activity at concentrations up to 32-64 μg/mL in the presence/absence of serum were then tested for MIC activity against a standard set of 5 microorganisms comprising of ATCC type strains of MRSA, Enterococcus faecalis, Enterococcus faecium, VRE and Escherichia coli. CLSI (formerly NCCLS) microbroth dilution technique was used.
(§2) Each compound is initially dissolved in 100 μL of DMSO. Each solution is then diluted further in 0.9 mL of sterile MH broth to give a total volume of 1 mL (1000 μg/mL) This stock solution is then further diluted in MH broth to give a test solution with final concentration of 128 μg/mL using the following formula: 0.5 ml stock in 3.4 ml MH broth
(§3) Each test organism was subcultured from the −70° C. deep freezer onto horse blood agar. The plates were streaked to obtain isolated colonies and incubated at 35° C. in non-CO2 incubator for 24 hours. A second subculture was carried out onto horse blood agar. For each test organism, 1-2 colonies were selected from an 18-24 hour culture and inoculated into 2 ml sterile MH broth. The turbidity was adjusted to 0.5 McFarland standard.
(§4) A 1:10 dilution in MH broth (200 μL in 2 ml MH) of the 0.5 McFarland control was prepared. 5 μL of this diluted solution was used to inoculate the trays.
(§5) The trays were prepared in a similar way as mentioned above and incubated at 35° C. in a non-CO2 incubator for 18-24 hours. The plates were examined for growth after the incubation time.
(§6) After 18-24 hour incubation 5 μL from each well was then inoculated onto horse blood agar and incubated for 18-24 hours at 35° C. in a non-CO2 incubator.
(§7) If the test organism is sensitive to the compound in the broth the growth will be inhibited. Similarly, if the organism grows on the antibiotic containing medium then it is resistant to this particular antibiotic.

[2] = system: Staphylococcus aureus (MRSA) ATCC 33591; assay: MIC against MRSA, microbroth dilution; details: MIC class
Procedure: as §1, §2, §3, §4, §5, §6, §7

[3] = system: Staphylococcus aureus ATCC 25923; assay: MIC against S. aureus, microbroth dilution in MH broth, without or with 5% horse serum; details: MIC class; S. aureus ATCC 25923
Procedure: as §1, §2, §3, §4
100 μL of sterile MH broth was added in columns 2-12. 200 μL of test solution was added in column 1. 100 μL was transferred in column 2 giving a ½ dilution. 100 μL from column 2 was then transferred to column 3 (¼ dilution). This dilution was carried on until column 12. A second tray containing the same test solution was inoculated in a similar manner using sterile MH broth with 5% heat inactivated horse serum. 5 μL of organism solution was then added to each well. The plates were then sealed and incubated at 35° C. in a non-CO2 incubator for 18-24 hours. The plates were examined for growth after the incubation time.
as §7

E. Faecium 51299 VanB = assay: MIC against vancomycin-resistant enterococcus 51299 (VanB), microbroth dilution; details: MIC class; ATCC 51299 VanB
Procedure: as §1, §2, §3, §4, §5, §6, §7

[4] = system: Enterococcus faecium ATCC 35667; assay: MIC against E. faecium, microbroth dilution; details: MIC class
Procedure: as §1, §2, §3, §4, §5, §6, §7

Compound	E. Fecalis 29212 activity [1]	S. Aureus 33591 MRSA activity [2]	S. Aureus 25923 activity [3]	E. Faecium 51299 VanB activity (E. Faecium 51299 VanB)	E. Faecium 35667 activity [4]
CCCCCCCCCCCCC(N)C(=O)NC1C(CO)OCC(n2c(O)nc3cc(C(F)(F)F)ccc32)C1O (stereo not drawn) [Compound 181]	+ (“+”: MIC (μg/mL): 64 ≧ MIC > 16)	++ (“++”: MIC (μg/mL): MIC ≦ 16)	+ (“+”: MIC (μg/mL): 64 ≧ MIC > 16)	+ (“+”: MIC (μg/mL): 64 ≧ MIC > 16)	+ (“+”: MIC (μg/mL): 64 ≧ MIC > 16)
CCCCCCCCCCCCC(N)C(=O)NC1C(CO)OCC(n2c(S)nc3cc(C(F)(F)F)ccc32)C1O (stereo not drawn) [Compound 182]	++ (“++”: MIC (μg/mL): MIC ≦ 16)	++ (“++”: MIC (μg/mL): MIC ≦ 16)	++ (“++”: MIC (μg/mL): MIC ≦ 16)	++ (“++”: MIC (μg/mL): MIC ≦ 16)	++ (“++”: MIC (μg/mL): MIC ≦ 16)
CCCCCCCCCCCCC(N)C(=O)NC1C(CO)OCC(n2c(N)nc3cc(C(F)(F)F)ccc32)C1O (stereo not drawn) [Compound 183]	− (“−”: MIC (μg/mL): MIC > 64)	− (“−”: MIC (μg/mL): MIC > 64)	+ (“+”: MIC (μg/mL): 64 ≧ MIC > 16)	− (“−”: MIC (μg/mL): MIC > 64)	++ (“++”: MIC (μg/mL): MIC ≦ 16)
CCCCCCCCCCCCC(N)C(=O)NC1C(CO)OCC(n2c(O)nc3cc(C(F)(F)F)cc(Cl)c32)C1O (stereo not drawn) [Compound 185]	++ (“++”: MIC (μg/mL): MIC ≦ 16)	++ (“++”: MIC (μg/mL): MIC ≦ 16)	+ (“+”: MIC (μg/mL): 64 ≧ MIC > 16)	+ (“+”: MIC (μg/mL): 64 ≧ MIC > 16)	++ (“++”: MIC (μg/mL): MIC ≦ 16)
CCCCCCCCCCCCC(N)C(=O)NC1C(CO)OCC(n2c(S)nc3cc(C(F)(F)F)cc(Cl)c32)C1O (stereo not drawn) [Compound 186]	+ (“+”: MIC (μg/mL): 64 ≧ MIC > 16)	+ (“+”: MIC (μg/mL): 64 ≧ MIC > 16)	++ (“++”: MIC (μg/mL): MIC ≦ 16)	− (“−”: MIC (μg/mL): MIC > 64)	− (“−”: MIC (μg/mL): MIC > 64)
CCCCCCCCCCCCC(N)C(=O)NC1C(CO)OCC(n2c(N)nc3cc(C(F)(F)F)cc(Cl)c32)C1O (stereo not drawn) [Compound 187]	++ (“++”: MIC (μg/mL): MIC ≦ 16)	++ (“++”: MIC (μg/mL): MIC ≦ 16)	++ (“++”: MIC (μg/mL): MIC ≦ 16)	++ (“++”: MIC (μg/mL): MIC ≦ 16)	+ (“+”: MIC (μg/mL): 64 ≧ MIC > 16)
CCCCCCCCCCCCC(N)C(=O)NC1C(CO)OCC(n2cnc3cc(C(F)(F)F)cc(Cl)c32)C1O (stereo not drawn) [Compound 188]	+ (“+”: MIC (μg/mL): 64 ≧ MIC > 16)	+ (“+”: MIC (μg/mL): 64 ≧ MIC > 16)	+ (“+”: MIC (μg/mL): 64 ≧ MIC > 16)	+ (“+”: MIC (μg/mL): 64 ≧ MIC > 16)	− (“−”: MIC (μg/mL): MIC > 64)
CCCCCCCCCCCCC(N)C(=O)NC1C(CO)OCC(Nc2ccc(C(F)(F)F)cc2[N+](=O)[O-])C1O (stereo not drawn) [Compound 197]	+ (“+”: MIC (μg/mL): 64 ≧ MIC > 16)	+ (“+”: MIC (μg/mL): 64 ≧ MIC > 16)	++ (“++”: MIC (μg/mL): MIC ≦ 16)	+ (“+”: MIC (μg/mL): 64 ≧ MIC > 16)	+ (“+”: MIC (μg/mL): 64 ≧ MIC > 16)
CCCCCCCCCCCCC(N)C(=O)NC1C(CO)OCC(Nc2c(Cl)cc(C(F)(F)F)cc2[N+](=O)[O-])C1O (stereo not drawn) [Compound 198]	+ (“+”: MIC (μg/mL): 64 ≧ MIC > 16)	+ (“+”: MIC (μg/mL): 64 ≧ MIC > 16)	+ (“+”: MIC (μg/mL): 64 ≧ MIC > 16)	+ (“+”: MIC (μg/mL): 64 ≧ MIC > 16)	+ (“+”: MIC (μg/mL): 64 ≧ MIC > 16)
